{"source": "paper PMC8217813", "about": "“Bridging Computational Vaccinology and Vaccine Development Through Systematic Identification, Characterization, and Downselection of Conserved and Variable Circumsporozoite Protein CD4 T Cell Epitopes From Diverse Plasmodium falciparum Strains” (Frontiers in Immunology, 2021)", "key": {"HLA-DRB1*0101": {"target": "T1, HLA-DRB1*0101 (Homo sapiens, UniProt P01903+P01911, A100R/D57E/F55L/F60I/F76Y/I96L/L162R/M171V/P40L/Q125E/R42F/V115G/Y59C)", "T1 construct": "purchased", "assay": "In vitro class II HLA binding competition assay", "details": "competition with fluorescent-labeled reference peptide, class II HLA monomers, 24-hours, test peptide 100,000 nM to 100 nM, time-resolved fluorescence", "in_short": "(§1)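 First, limiting class II HLA monomers were incubated for 24 h with a fluorescent-labeled reference peptide and DMSO-dissolved test peptide at final concentrations of 100,000 nM to 100 nM. Next, HLA-peptide complexes were captured with anti-HLA-DR antibody. Finally, bound reference was quantified by europium time-resolved fluorescence and IC50 calculated.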"}, "HLA-DRB1*0301": {"target": "HLA-DRB1*0301 (Homo sapiens, UniProt P01903+P01911, A100K/A102G/A103R/A169T/F55Y/I96L/K41T/L162R/M171V/P40S/Q125H/Q178H/Q39Y/R42S/S66N/T106N/T262R/W38E/Y61H)", "assay": "In vitro class II HLA binding competition assay", "details": "competition with fluorescent-labeled reference peptide, class II HLA monomers, 24-hours, test peptide 100,000 nM to 100 nM, time-resolved fluorescence", "in_short": "as §1"}, "HLA-DRB1*0401": {"target": "T2, HLA-DRB1*0401 (Homo sapiens, UniProt P01903+P01911, A100K/A169T/F76Y/I96L/K127E/L162R/M171V/N62H/P40V/Q125Y/R42H/S133A/S149N/S66Y/V115G/V209L/W38E)", "T2 construct": "purchased", "assay": "In vitro class II HLA binding competition assay", "in_short": "as §1"}, "HLA-DRB1*0701": {"target": "HLA-DRB1*0701 (Homo sapiens, UniProt P01903+P01911, A100R/A102G/A103Q/D57E/D86V/E43K/F76Y/K127E/L162R/M171V/P40G/Q125H/Q99D/R33Q/R42Y/R54Q/S133A/S66F/T210M/V115G/Y107V/Y59L/Y89S)", "assay": "In vitro class II HLA binding competition assay", "in_short": "as §1"}, "HLA-DRB1*0801": {"target": "HLA-DRB1*0801 (Homo sapiens, UniProt P01903+P01911, A100R/A103L/A169T/D86S/F76Y/H45Y/I96F/K41T/L162R/M171V/P40S/Q125H/Q178H/Q39Y/Q99D/R218S/R42G/S66Y/V115G/W38E)", "assay": "In vitro class II HLA binding competition assay", "details": "competition with fluorescent-labeled reference peptide, class II HLA monomers, 24-hours, test peptide 100,000 nM to 100 nM, time-resolved fluorescence", "in_short": "as §1"}, "HLA-DRB1*1101": {"target": "T3, HLA-DRB1*1101 (Homo sapiens, UniProt P01903+P01911, A100R/A169T/A87E/I96F/K41T/L162R/M171V/P40S/Q125H/Q178H/Q39Y/Q99D/R42S/S66Y/T262R/V115G/W38E)", "T3 construct": "purchased", "assay": "In vitro class II HLA binding competition assay", "details": "competition with fluorescent-labeled reference peptide, class II HLA monomers, 24-hours, test peptide 100,000 nM to 100 nM, time-resolved fluorescence", "in_short": "as §1"}, "HLA-DRB1*1301": {"target": "HLA-DRB1*1301 (Homo sapiens, UniProt P01903+P01911, A100E/A169T/K41T/L162R/M171V/P40S/Q125H/Q178H/Q39Y/Q99D/R42S/S66N/T262R/W38E/Y61H)", "assay": "In vitro class II HLA binding competition assay", "details": "competition with fluorescent-labeled reference peptide, class II HLA monomers, 24-hours, test peptide 100,000 nM to 100 nM, time-resolved fluorescence", "in_short": "as §1"}, "HLA-DRB1*1501": {"target": "T4, HLA-DRB1*1501 (Homo sapiens, UniProt P01903+P01911)", "T4 construct": "purchased", "assay": "In vitro class II HLA binding competition assay", "in_short": "as §1"}, "[1]": {"system": "CD4 T cells co-cultured with autologous DCs from PBMCs", "assay_type": "cell-based, human", "details": "positive = Stimulation Index ≥1.5-fold above baseline, 5 µg/mL peptide"}}, "note": "Peptide text beside a SMILES is read from it."}
{"smiles": "CC[C@H](C)[C@H](NC(=O)[C@H](Cc1c[nH]cn1)NC(=O)[C@H](CCC(N)=O)NC(=O)[C@H](CC(=O)O)NC(C)=O)C(=O)N[C@@H](CCC(=O)O)C(=O)N[C@@H](CCCCN)C(=O)N[C@@H](Cc1ccc(O)cc1)C(=O)N[C@@H](CC(C)C)C(=O)N[C@@H](CCCCN)C(=O)N[C@H](C(=O)N[C@H](C(=O)N[C@@H](CCC(N)=O)C(=O)N[C@@H](CC(N)=O)C(=O)N[C@@H](CO)C(=O)N[C@@H](CC(C)C)C(=O)N[C@@H](CO)C(=O)N[C@H](C(=O)N[C@@H](CCC(=O)O)C(=O)N[C@@H](Cc1c[nH]c2ccccc12)C(=O)N[C@@H](CO)C(=O)N1CCC[C@H]1C(N)=O)[C@@H](C)O)[C@@H](C)CC)[C@@H](C)CC", "note": "[ICS5] (Ac-DQHIEKYLKIIQNSLSTEWSP-NH2)", "values": [{"measurement": "IC50", "setting": "HLA-DRB1*0101", "value": 0.218, "unit": "µM"}, {"measurement": "IC50", "setting": "HLA-DRB1*0301", "value": 84.7, "unit": "µM"}, {"measurement": "IC50", "setting": "HLA-DRB1*0401", "value": 0.035, "unit": "µM"}, {"measurement": "IC50", "setting": "HLA-DRB1*0701", "value": 3.68, "unit": "µM"}, {"measurement": "IC50", "setting": "HLA-DRB1*0801", "value": 23.1, "unit": "µM"}, {"measurement": "IC50", "setting": "HLA-DRB1*1101", "value": 5.55, "unit": "µM"}, {"measurement": "IC50", "setting": "HLA-DRB1*1301", "value": 19.8, "unit": "µM"}, {"measurement": "IC50", "setting": "HLA-DRB1*1501", "value": 0.03, "unit": "µM"}, {"measurement": "Percentage of donors demonstrating IFN-γ responses, DR1", "setting": "[1]; DR1 donors N=5, ICCS after 14-day co-culture", "value": 80, "unit": "%"}, {"measurement": "Percentage of donors demonstrating IL-2 responses, DR1", "setting": "[1]; DR1 donors N=5, ICCS", "value": 20, "unit": "%"}, {"measurement": "Percentage of donors demonstrating IL-4 responses, DR1", "setting": "[1]; DR1 donors N=5, ICCS", "value": 0, "unit": "%"}, {"measurement": "Percentage of donors demonstrating IL-10 responses, DR1", "setting": "[1]; DR1 donors N=5, ICCS", "value": 0, "unit": "%"}, {"measurement": "Percentage of donors demonstrating TNF-α responses, DR1", "setting": "[1]; DR1 donors N=5, ICCS", "value": 40, "unit": "%"}, {"measurement": "Percentage of donors demonstrating IFN-γ responses, DR3", "setting": "[1]; DR3 donors N=6, ICCS after 14-day co-culture", "value": 33, "unit": "%"}, {"measurement": "Percentage of donors demonstrating IL-2 responses, DR3", "setting": "[1]; DR3 donors N=6, ICCS", "value": 0, "unit": "%"}, {"measurement": "Percentage of donors demonstrating IL-4 responses, DR3", "setting": "[1]; DR3 donors N=6, ICCS", "value": 33, "unit": "%"}, {"measurement": "Percentage of donors demonstrating IL-10 responses, DR3", "setting": "[1]; DR3 donors N=6, ICCS", "value": 17, "unit": "%"}, {"measurement": "Percentage of donors demonstrating TNF-α responses, DR3", "setting": "[1]; DR3 donors N=6, ICCS", "value": 17, "unit": "%"}, {"measurement": "Percentage of donors demonstrating IFN-γ responses, DR4", "setting": "[1]; DR4 donors N=10, ICCS after 14-day co-culture", "value": 60, "unit": "%"}, {"measurement": "Percentage of donors demonstrating IL-2 responses, DR4", "setting": "[1]; DR4 donors N=10, ICCS", "value": 40, "unit": "%"}, {"measurement": "Percentage of donors demonstrating IL-4 responses, DR4", "setting": "[1]; DR4 donors N=10, ICCS", "value": 0, "unit": "%"}, {"measurement": "Percentage of donors demonstrating IL-10 responses, DR4", "setting": "[1]; DR4 donors N=10, ICCS", "value": 0, "unit": "%"}, {"measurement": "Percentage of donors demonstrating TNF-α responses, DR4", "setting": "[1]; DR4 donors N=10, ICCS", "value": 40, "unit": "%"}, {"measurement": "Percentage of donors demonstrating IFN-γ responses, DR7", "setting": "[1]; DR7 donors N=4, ICCS after 14-day co-culture", "value": 75, "unit": "%"}, {"measurement": "Percentage of donors demonstrating IL-2 responses, DR7", "setting": "[1]; DR7 donors N=4, ICCS", "value": 25, "unit": "%"}, {"measurement": "Percentage of donors demonstrating IL-4 responses, DR7", "setting": "[1]; DR7 donors N=4, ICCS", "value": 25, "unit": "%"}, {"measurement": "Percentage of donors demonstrating IL-10 responses, DR7", "setting": "[1]; DR7 donors N=4, ICCS", "value": 0, "unit": "%"}, {"measurement": "Percentage of donors demonstrating TNF-α responses, DR7", "setting": "[1]; DR7 donors N=4, ICCS", "value": 0, "unit": "%"}, {"measurement": "Percentage of donors demonstrating IFN-γ responses, DR8", "setting": "[1]; DR8 donors N=4, ICCS after 14-day co-culture", "value": 25, "unit": "%"}, {"measurement": "Percentage of donors demonstrating IL-2 responses, DR8", "setting": "[1]; DR8 donors N=4, ICCS", "value": 0, "unit": "%"}, {"measurement": "Percentage of donors demonstrating IL-4 responses, DR8", "setting": "[1]; DR8 donors N=4, ICCS", "value": 0, "unit": "%"}, {"measurement": "Percentage of donors demonstrating IL-10 responses, DR8", "setting": "[1]; DR8 donors N=4, ICCS", "value": 0, "unit": "%"}, {"measurement": "Percentage of donors demonstrating TNF-α responses, DR8", "setting": "[1]; DR8 donors N=4, ICCS", "value": 75, "unit": "%"}, {"measurement": "Percentage of donors demonstrating IFN-γ responses, DR9", "setting": "[1]; DR9 donors N=4, ICCS after 14-day co-culture", "value": 50, "unit": "%"}, {"measurement": "Percentage of donors demonstrating IL-2 responses, DR9", "setting": "[1]; DR9 donors N=4, ICCS", "value": 25, "unit": "%"}, {"measurement": "Percentage of donors demonstrating IL-4 responses, DR9", "setting": "[1]; DR9 donors N=4, ICCS", "value": 0, "unit": "%"}, {"measurement": "Percentage of donors demonstrating IL-10 responses, DR9", "setting": "[1]; DR9 donors N=4, ICCS", "value": 25, "unit": "%"}, {"measurement": "Percentage of donors demonstrating TNF-α responses, DR9", "setting": "[1]; DR9 donors N=4, ICCS", "value": 50, "unit": "%"}, {"measurement": "Percentage of donors demonstrating IFN-γ responses, DR11", "setting": "[1]; DR11 donors N=4, ICCS after 14-day co-culture", "value": 100, "unit": "%"}, {"measurement": "Percentage of donors demonstrating IL-2 responses, DR11", "setting": "[1]; DR11 donors N=4, ICCS", "value": 50, "unit": "%"}, {"measurement": "Percentage of donors demonstrating IL-4 responses, DR11", "setting": "[1]; DR11 donors N=4, ICCS", "value": 0, "unit": "%"}, {"measurement": "Percentage of donors demonstrating IL-10 responses, DR11", "setting": "[1]; DR11 donors N=4, ICCS", "value": 0, "unit": "%"}, {"measurement": "Percentage of donors demonstrating TNF-α responses, DR11", "setting": "[1]; DR11 donors N=4, ICCS", "value": 75, "unit": "%"}, {"measurement": "Percentage of donors demonstrating IFN-γ responses, DR13", "setting": "[1]; DR13 donors N=7, ICCS after 14-day co-culture", "value": 43, "unit": "%"}, {"measurement": "Percentage of donors demonstrating IL-2 responses, DR13", "setting": "[1]; DR13 donors N=7, ICCS", "value": 14, "unit": "%"}, {"measurement": "Percentage of donors demonstrating IL-4 responses, DR13", "setting": "[1]; DR13 donors N=7, ICCS", "value": 14, "unit": "%"}, {"measurement": "Percentage of donors demonstrating IL-10 responses, DR13", "setting": "[1]; DR13 donors N=7, ICCS", "value": 0, "unit": "%"}, {"measurement": "Percentage of donors demonstrating TNF-α responses, DR13", "setting": "[1]; DR13 donors N=7, ICCS", "value": 43, "unit": "%"}, {"measurement": "Percentage of donors demonstrating IFN-γ responses, DR15", "setting": "[1]; DR15 donors N=7, ICCS after 14-day co-culture", "value": 43, "unit": "%"}, {"measurement": "Percentage of donors demonstrating IL-2 responses, DR15", "setting": "[1]; DR15 donors N=7, ICCS", "value": 0, "unit": "%"}, {"measurement": "Percentage of donors demonstrating IL-4 responses, DR15", "setting": "[1]; DR15 donors N=7, ICCS", "value": 0, "unit": "%"}, {"measurement": "Percentage of donors demonstrating IL-10 responses, DR15", "setting": "[1]; DR15 donors N=7, ICCS", "value": 14, "unit": "%"}, {"measurement": "Percentage of donors demonstrating TNF-α responses, DR15", "setting": "[1]; DR15 donors N=7, ICCS", "value": 29, "unit": "%"}]}
